# From US12180187B2, “1-phenyl-5-azinylpyrazolyl-3-oxyalkyl acids and their use for controlling unwanted plant growth” (BAYER AKTIENGESELLSCHAFT, priority 2019, dated 2024)
# Several values for one entry are separate records, joined by “and”; a condition that tells them apart may be missing. Identical values can stand only once.
# What was measured:
# [1] = system: ALOMY; assay: Pre-emergence action against ALOMY, 1280 g/ha; type: in vivo, Alopecurus myosuroides; conditions: visual scoring after about 3 weeks vs untreated controls, 100% = plants have died, 0% = like control plants
# Method in brief: (§1)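 Visual percent-effect ratings (0% = like control, 100% = plants dead) were taken about 3 weeks after pre-emergence soil-surface application of WP/EC aqueous formulations with 0.5% additive, 600 L water/ha. Seeds were sown in sandy loam and grown in the greenhouse.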
# [2] = system: DIGSA; assay: Pre-emergence action against DIGSA, 1280 g/ha; type: in vivo, Digitaria sanguinalis; conditions: visual scoring after about 3 weeks vs untreated controls, 100% = plants have died, 0% = like control plants
# Method in brief: as §1
# [3] = system: ECHCG; assay: Pre-emergence action against ECHCG, 1280 g/ha; type: in vivo, Echinochloa crus-galli; conditions: visual scoring after about 3 weeks vs untreated controls, 100% = plants have died, 0% = like control plants
# Method in brief: as §1
# [4] = system: LOLRI; assay: Pre-emergence action against LOLRI, 1280 g/ha; type: in vivo, Lolium rigidum; conditions: visual scoring after about 3 weeks vs untreated controls, 100% = plants have died, 0% = like control plants
# Method in brief: as §1
# [5] = system: POAAN; assay: Pre-emergence action against POAAN, 1280 g/ha; type: in vivo, Poa annua; conditions: visual scoring after about 3 weeks vs untreated controls, 100% = plants have died, 0% = like control plants
# Method in brief: as §1
# [6] = system: SETVI; assay: Pre-emergence action against SETVI, 1280 g/ha; type: in vivo, Setaria viridis; conditions: visual scoring after about 3 weeks vs untreated controls, 100% = plants have died, 0% = like control plants
# Method in brief: as §1
# [7] = system: ABUTH; assay: Pre-emergence action against ABUTH, 1280 g/ha; type: in vivo, Abutilon theophrasti; conditions: scored visually after about 3 weeks vs untreated controls (100% = plants have died)
# Method in brief: as §1
# [8] = system: AMARE; assay: Pre-emergence action against AMARE, 1280 g/ha; type: in vivo, Amaranthus retroflexus; conditions: scored visually after about 3 weeks vs untreated controls (100% = plants have died)
# Method in brief: as §1
# [9] = system: KCHSC; assay: Pre-emergence action against KCHSC, 1280 g/ha; type: in vivo, Bassia scoparia; conditions: scored visually after about 3 weeks vs untreated controls (100% = plants have died)
# Method in brief: as §1
# [10] = system: MATIN; assay: Pre-emergence action against MATIN, 1280 g/ha; type: in vivo, Tripleurospermum inodorum (Matricaria inodora); conditions: scored visually after about 3 weeks vs untreated controls (100% = plants have died)
# Method in brief: as §1
# [11] = system: STEME; assay: Pre-emergence action against STEME, 1280 g/ha; type: in vivo, Stellaria media; conditions: scored visually after about 3 weeks vs untreated controls (100% = plants have died)
# Method in brief: as §1
# [12] = system: VERPE; assay: Pre-emergence action against VERPE, 1280 g/ha; type: in vivo, Veronica persica; conditions: scored visually after about 3 weeks vs untreated controls (100% = plants have died)
# Method in brief: as §1
# [13] = system: ALOMY; assay: Pre-emergence action at 320 g/ha against ALOMY; type: in vivo, Alopecurus myosuroides; conditions: scored visually after about 3 weeks vs untreated controls (100% = plants have died)
# Method in brief: (§2)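 Application: aqueous WP or EC with 0.5% additive on soil covering seeds, 600 l/ha. Read-out: visual percent damage after ~3 weeks in greenhouse, untreated pots as reference.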
# [14] = system: AVEFA; assay: Pre-emergence action at 320 g/ha against AVEFA; type: in vivo; conditions: visual scoring after about 3 weeks vs untreated controls
# Method in brief: as §2
# [15] = system: DIGSA; assay: Pre-emergence action at 320 g/ha against DIGSA; type: in vivo, Digitaria sanguinalis; conditions: visual scoring after about 3 weeks vs untreated controls
# Method in brief: as §2
# [16] = system: ECHGC; assay: Pre-emergence action at 320 g/ha against ECHGC; type: in vivo, Echinochloa crus-galli; conditions: visual scoring after about 3 weeks vs untreated controls
# Method in brief: as §2
# [17] = system: LOLRI; assay: Pre-emergence action at 320 g/ha against LOLRI; type: in vivo, Lolium rigidum; conditions: visual scoring after about 3 weeks vs untreated controls
# Method in brief: as §2
# [18] = system: SETVI; assay: Pre-emergence action at 320 g/ha against SETVI; type: in vivo, Setaria viridis; conditions: visual scoring after about 3 weeks vs untreated controls
# Method in brief: as §2
# [19] = system: AMARE; assay: Pre-emergence action at 320 g/ha against AMARE; type: in vivo, Amaranthus retroflexus; conditions: visual scoring after about 3 weeks vs untreated controls
# Method in brief: as §2
# [20] = system: MATIN; assay: Pre-emergence action at 320 g/ha against MATIN; type: in vivo, Tripleurospermum inodorum (Matricaria inodora); conditions: visual scoring after about 3 weeks vs untreated controls
# Method in brief: as §2
# [21] = system: PHBPU; assay: Pre-emergence action at 320 g/ha against PHBPU; type: in vivo; conditions: visual scoring after about 3 weeks vs untreated controls
# Source text: b) Seeds of monocotyledonous and dicotyledonous weed plants and crop plants are placed in plastic or organic planting pots and covered with soil. The compounds of the invention, formulated in the form of wettable powders (WP) or as emulsion concentrates (EC), are then applied onto the surface of the covering soil as aqueous suspension or emulsion with addition of 0.5% additive at a water application rate of 600 l/ha (converted). After the treatment, the pots are placed in a greenhouse and kept under good growth conditions for the trial plants. After about 3 weeks, the effect of the preparations is scored visually in comparison with untreated controls as percentages. For example, 100% activity=the plants have died, 0% activity=like control plants. Tables 13 to 26 below show the effects of selected compounds of the general formula (I) on various harmful plants and at an application rate corresponding to 320 g/ha, which were obtained by the experimental procedure mentioned above.
# [22] = system: POLCO; assay: Pre-emergence action at 320 g/ha against POLCO; type: in vivo, Fallopia convolvulus (Polygonum convolvulus); conditions: visual scoring after about 3 weeks vs untreated controls
# Method in brief: as §2
# [23] = system: VERPE; assay: Pre-emergence action at 320 g/ha against VERPE; type: in vivo, Veronica persica; conditions: visual scoring after about 3 weeks vs untreated controls
# Method in brief: as §2
# [24] = system: VIOTR; assay: Pre-emergence action at 320 g/ha against VIOTR; type: in vivo, Viola tricolor; conditions: dosage 320 g/ha
# Method in brief: as §2
# [25] = system: ALOMY; assay: Post-emergence action against ALOMY, 1.28 kg/ha; type: in vivo, Alopecurus myosuroides; conditions: dosage 1280 g/ha, visual rating about 3 weeks after treatment vs untreated controls
# Method in brief: (§3)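 Visual rating against untreated plants about 3 weeks after spraying gives % activity, where 0% means like controls and 100% means plants died. Plants were treated post-emergence at the one-leaf stage with compound formulated as wettable powder or emulsion concentrate, applied at 600 L water/ha plus 0.5% additive.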
# [26] = system: DIGSA; assay: Post-emergence action against DIGSA, 1.28 kg/ha; type: in vivo, Digitaria sanguinalis; conditions: dosage 1280 g/ha, visual rating about 3 weeks after treatment vs untreated controls
# Method in brief: as §3
# [27] = system: ECHCG; assay: Post-emergence action against ECHCG, 1.28 kg/ha; type: in vivo, Echinochloa crus-galli; conditions: dosage 1280 g/ha, visual rating about 3 weeks after treatment vs untreated controls
# Method in brief: as §3
# [28] = system: LOLRI; assay: Post-emergence action against LOLRI, 1.28 kg/ha; type: in vivo, Lolium rigidum; conditions: dosage 1280 g/ha, visual rating about 3 weeks after treatment vs untreated controls
# Method in brief: as §3
# [29] = system: POAAN; assay: Post-emergence action against POAAN, 1.28 kg/ha; type: in vivo, Poa annua; conditions: dosage 1280 g/ha, visual rating about 3 weeks after treatment vs untreated controls
# Method in brief: as §3
# [30] = system: SETVI; assay: Post-emergence action against SETVI, 1.28 kg/ha; type: in vivo, Setaria viridis; conditions: dosage 1280 g/ha, visual rating about 3 weeks after treatment vs untreated controls
# Method in brief: as §3
# [31] = system: ABUTH; assay: Post-emergence action against ABUTH, 1.28 kg/ha; type: in vivo, Abutilon theophrasti; conditions: dosage 1280 g/ha, visual rating about 3 weeks after treatment vs untreated controls (100% = plants died)
# Method in brief: as §3
# [32] = system: AMARE; assay: Post-emergence action against AMARE, 1.28 kg/ha; type: in vivo, Amaranthus retroflexus; conditions: dosage 1280 g/ha, visual rating about 3 weeks after treatment vs untreated controls (100% = plants died)
# Method in brief: as §3
# [33] = system: KCHSC; assay: Post-emergence action against KCHSC, 1.28 kg/ha; type: in vivo, Bassia scoparia; conditions: dosage 1280 g/ha, visual rating about 3 weeks after treatment vs untreated controls (100% = plants died)
# Method in brief: as §3
# [34] = system: MATIN; assay: Post-emergence action against MATIN, 1.28 kg/ha; type: in vivo, Tripleurospermum inodorum (Matricaria inodora); conditions: dosage 1280 g/ha, visual rating about 3 weeks after treatment vs untreated controls (100% = plants died)
# Method in brief: as §3
# [35] = system: STEME; assay: Post-emergence action against STEME, 1.28 kg/ha; type: in vivo, Stellaria media; conditions: dosage 1280 g/ha, visual rating about 3 weeks after treatment vs untreated controls (100% = plants died)
# Method in brief: as §3
# [36] = system: VERPE; assay: Post-emergence action against VERPE, 1.28 kg/ha; type: in vivo, Veronica persica; conditions: dosage 1280 g/ha, visual rating about 3 weeks after treatment vs untreated controls (100% = plants died)
# Method in brief: as §3
structure (smiles),measurement,setting,value
O=C(COc1nn(-c2ccccc2F)c(-c2ccc(F)nc2)c1Br)O[C@H]1CCOC1=O [VII-064],Pre-emergence action against ALOMY,[1],100%
same,Pre-emergence action against DIGSA,[2],100%
same,Pre-emergence action against ECHCG,[3],100%
same,Pre-emergence action against LOLRI,[4],100%
same,Pre-emergence action against POAAN,[5],100%
same,Pre-emergence action against SETVI,[6],100%
same,Pre-emergence action against ABUTH,[7],90%
same,Pre-emergence action against AMARE,[8],100%
same,Pre-emergence action against KCHSC,[9],100% and 90%
same,Pre-emergence action against MATIN,[10],100%
same,Pre-emergence action against STEME,[11],100%
same,Pre-emergence action against VERPE,[12],100%
same,Pre-emergence action at 320 g/ha against ALOMY in %,[13],100%
same,Pre-emergence action against AVEFA in %,[14],90%
same,Pre-emergence action against DIGSA in %,[15],100%
same,Pre-emergence action against ECHGC in %,[16],100% and 90%
same,Pre-emergence action against LOLRI in %,[17],100%
same,Pre-emergence action against SETVI in %,[18],100%
same,Pre-emergence action against AMARE in %,[19],100%
same,Pre-emergence action against MATIN in %,[20],100%
same,Pre-emergence action against PHBPU in %,[21],90%
same,Pre-emergence action against POLCO in %,[22],90%
same,Pre-emergence action against VERPE in %,[23],100%
same,Pre-emergence action against VIOTR in %,[24],100%
same,Post-emergence action against ALOMY,[25],100%
same,Post-emergence action against DIGSA,[26],100%
same,Post-emergence action against ECHCG,[27],100%
same,Post-emergence action against LOLRI,[28],100% and 90%
same,Post-emergence action against POAAN,[29],100%
same,Post-emergence action against SETVI,[30],100% and 90%
same,Post-emergence action against ABUTH,[31],90%
same,Post-emergence action against AMARE,[32],90% and 100%
same,Post-emergence action against KCHSC,[33],90%
same,Post-emergence action against MATIN,[34],100% and 90%
same,Post-emergence action against STEME,[35],100%
same,Post-emergence action against VERPE,[36],100%
